Tests used:
[1] = system: GR (glyphosate resistant) palmer amaranth (AMAPA); experiment: Greenhouse pre-emergent efficacy, Example 3B; type: in vivo, Amaranthus palmeri; settings: rates tested (½× and 1×)
Description: (§1) ACC, DFF and MRB were used as the commercial products Warrant®, Brodal® and TriCor® DF as described in Example 3A above. Further, also a DFF+MRB pre-mix (200 g/L DFF+400 g/L MRB, suspension concentrate) was used. For GR (glyphosate resistant) palmer amaranth (AMAPA), at 1× rate, all 2- and 3-way treatments provided >95% control. Except for the DFF+MRB pre-mix, these treatments also provided >95% control of GR AMAPA at ½× rate as well. No single active ingredient provided acceptable control of GR AMAPA in this trial.

[2] = system: AMAPA (WR-2015-008), resistant against glyphosate and metribuzin (PSII-inhibitor), PPO-, HPPD- and ALS-inhibitor herbicides; experiment: Greenhouse pre-emergent efficacy on multiple resistant AMAPA, Example 3D; type: in vivo, Amaranthus palmeri; settings: 21 DAT
Procedure: (§2) Premixes of present disclosure were compared with ACC and DFF used as the commercial products Warrant® and Brodal® as described in Example 3A above, as well as a corresponding tank-mix of ACC+DFF. Two different pre-mix formulations according to the present disclosure were evaluated for pre-emergent efficacy on the following difficult to control multiple resistant palmer amaranth (Amaranthus palmeri, AMAPA) species: AMAPA (WR-2015-002), resistant against glyphosate, PPO-, HPPD- and ALS-inhibitor herbicides; and AMAPA (WR-2015-008), resistant against glyphosate and metribuzin (PSII-inhibitor), PPO-, HPPD- and ALS-inhibitor herbicides.
(§3) At 21 DAT (days after treatment), visual percent control as well as fresh biomass ratings were recorded for all replications. […] Percent control was then calculated based on the respective untreated control plants.

[3] = system: AMAPA (WR-2015-002), resistant against glyphosate, PPO-, HPPD- and ALS-inhibitor herbicides; experiment: as above; type: in vivo, Amaranthus palmeri; settings: 21 DAT
Procedure: as §2, §3

proso millet (PANMI) = experiment: Greenhouse pre-emergent efficacy, Example 3B; type: in vivo, Panicum miliaceum; settings: both rates tested (½× and 1×)
Description: as §1

[4] = system: glyphosate resistant Canola (Roundup Ready® Canola); experiment: Greenhouse post-emergent efficacy in glyphosate resistant Canola, Example 3C; type: in vivo; settings: visual rating 14 DAT
Procedure: ACC and DFF were used as the commercial products Warrant® and Brodal® as described in Example 3A above. The seeds of glyphosate resistant Canola (Roundup Ready® Canola) were planted in 3.5-inches (8.89 cm) square plastic pots filled with a potting media of 75% silt loam and 25% Redi-earth (Sun Gro, Bellevue, Wash.). The temperature conditions were 22° C. day and 17° C. night with 14 hours of supplemental light (approximately 600 microeinsteins). The pots are placed in a controlled-environment greenhouse equipped with sub-irrigation. The treatments applications were applied to the plants with a track sprayer generally using a TTI110015 nozzle spray nozzle. The spray nozzle was 16 inches (40.64 cm) above the top of the plants and a spray volume rate of about 140 L/ha was applied. The plants were sprayed when canola was at the V3-V4 growth stage. Visual ratings (% control) were collected at 14 DAT.

[5] = 25° C.; cited from earlier work
[6] = group line over the three rates (1×, ½×, ¼×)

Structure (SMILES)	control of GR AMAPA, in words [1]	Injury Average AMAPA (WR-2015-008) ([2]; 1× (ACC 1260, DFF 150 g ai/ha)) [%]	Injury Average AMAPA (WR-2015-008) ([2]; ½× (ACC 630, DFF 75 g ai/ha)) [%]	Injury Average AMAPA (WR-2015-002) ([3]; 1× (ACC 1260, DFF 150 g ai/ha)) [%]	Injury Average AMAPA (WR-2015-002) ([3]; ½× (ACC 630, DFF 75 g ai/ha)) [%]	control of proso millet (PANMI), in words (proso millet (PANMI))	Canola Crop Injury Average [4, 6] [%]	Canola Crop Injury Average ([4]; ¼× (ACC 315, DFF 38 g ai/ha)) [%]	Canola Crop Injury Average ([4]; ½× (ACC 630, DFF 75 g ai/ha)) [%]	water solubility [5]
CCOCN(C(=O)CCl)c1c(C)cccc1CC [ACC, 2-chloro-N-(ethoxymethyl)-N-(2-ethyl-6-methylphenyl)acetamide]	weak control	73.8	60.6	81.6	61.9	weak control	6.7	0.0	2.5	
O=C(Nc1ccc(F)cc1F)c1cccnc1Oc1cccc(C(F)(F)F)c1 [DFF, N-(2,4-difluorophenyl)-2-[3-(trifluoromethyl)phenoxy]-3-pyridinecarboxamide]	weak control	75.6	65.6	70.6	51.3	weak control	18.3	3.1	13.8	about 50 μg/L

From patent US20220053758A1, “Microcapsule With Acetamides And Diflufenican” (Monsanto Technology LLC, priority 2020, published 2022)
